target: T1, human ML1B receptor (Homo sapiens, UniProt P49286); assay: Binding to human melatonergic receptors (2-[125I]-iodomelatonin, NIH 3T3 cell membranes, human ML1B receptor); settings: IC50 class; 200 pM 2-[125I]-iodomelatonin, 37° C., 1 hour, membranes of NIH 3T3 cells transfected with human ML1B receptor; read-out: Melatonin Binding
T1 construct: expressed in transfected cells; host or cells: NIH 3T3 cells (stably transfected; obtained from S. M. Reppert)
T1 sequence (P49286 1-362): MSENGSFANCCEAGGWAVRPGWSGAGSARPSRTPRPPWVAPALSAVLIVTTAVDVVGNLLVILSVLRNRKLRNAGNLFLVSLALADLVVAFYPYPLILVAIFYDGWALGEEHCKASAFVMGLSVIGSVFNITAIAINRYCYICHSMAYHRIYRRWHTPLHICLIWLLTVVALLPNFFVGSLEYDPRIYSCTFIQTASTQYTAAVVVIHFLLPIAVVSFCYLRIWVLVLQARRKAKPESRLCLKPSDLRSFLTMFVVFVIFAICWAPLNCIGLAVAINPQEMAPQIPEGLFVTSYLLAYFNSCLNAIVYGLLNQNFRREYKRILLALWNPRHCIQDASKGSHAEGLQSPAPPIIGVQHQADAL
Protocol: Measurement of Binding to Human Melatonergic Receptors The melatonergic binding affinities of various compounds of Formula I were determined by the method of Reppert, S. M., Weaver, D. R., and Ebisawa, R. (Neuron, Volume 13, 1177-1185, 1994). The assays were incubated at 37° C. for 1 hour, and the reaction was terminated by filtration. The filters were washed with wash buffer. […] The reagents, membrane and other techniques used in the melatonergic binding assays are more fully described below: […] Reagents: (a) 50 mM Tris buffer containing 12.5 mM MgCl2, and 2 mM EDTA, pH 7.4 at 37° C. (b) Wash buffer: 20 mM Tris base containing 2 mM MgCl2. pH 7.4 at room temperature. (c) Melatonin (10^-5 M final concentration). (d) 2-[^125 I]-Iodomelatonin, 200 pM final concentration Source: NEN 2. Membrane preparation: NIH 3T3 cells stably transfected with the human ML1B receptor were obtained from S. M. Reppert and maintained. Cells were pelleted when confluent. The supernatant was discarded and the pellets frozen. For preparing membrane homogenates, the pellets are thawed on ice and resuspended in TME buffer, Tris base, MgCl2, EDTA (pH 7.4 at 37° C.), supplemented with aprotinin, leupeptin, and […]. The cells were then homogenized and centrifuged. The resulting pellet was resuspended with a Dounce homogenizer in TME and frozen. At assay, a small aliquot was thawed on ice and resuspended in TME buffer.

| Structure (SMILES) | IC50 [nM] |
| --- | --- |
| COc1cc2c(cc1F)CCC2C1CCN(C(=O)C(C)C)CC1 (centres unmarked) [4-(5-Fluoro-6-methoxy-indan-1-yl)1-(2-methylpropanoyl)piperidine] | < 10 |
| CCC(=O)N1CCC(C2CCc3cc(F)c(OC)cc32)CC1 (centres unmarked) [4-(5-Fluoro-6-methoxy-indan-1-yl)-1-propanoylpiperidine] | < 10 |
| CCc1ccc2c(c1)C(C1CCN(C(=O)C(C)C)CC1)CC2 (centres unmarked) [4-(6-Ethyl-indan-1-yl)-1-(2-methylpropanoyl)piperidine] | < 10 |
| CC(C)C(=O)N1CCC(C2CCc3ccc(F)cc32)CC1 (centres unmarked) [4-(6-Fluoro-indan-1-yl)-1-(2-methylpropanoyl)piperidine] | < 10 |
| COCC(=O)N1CCC(C2CCc3ccc(OC)cc32)CC1 (centres unmarked) [4-(6-Methoxy-indan-1-yl)-1-(2-methoxy-acetyl)piperidine] | < 10 |
| CCC(C)C(=O)N1CCC(C2CCc3ccc(OC)cc32)CC1 (centres unmarked) [4-(6-Methoxy-indan-1-yl)-1-(2-methylbutanoyl)piperidine] | < 10 |
| COc1ccc2c(c1)C(C1CCN(C(=O)CSC)CC1)CC2 (centres unmarked) [4-(6-Methoxy-indan-1-yl)-1-(2-methylthioacetyl)piperidine] | < 10 |
| COc1ccc2c(c1)C(C1CCN(C(=O)c3csnn3)CC1)CC2 (centres unmarked) [4-(6-Methoxy-indan-1-yl)-1-[(1,2,3-thiadiazol-4-yl)carbonyl]piperidine] | < 10 |
| COc1ccc2c(c1)C(C1CCN(C(=O)c3cccn3C)CC1)CC2 (centres unmarked) [4-(6-Methoxy-indan-1-yl)-1-[(1-methyl-pyrrol-2-yl)carbonyl]piperidine] | < 10 |
| COc1ccc2c(c1)C(C1CCN(C(=O)c3ccc[nH]3)CC1)CC2 (centres unmarked) [4-(6-Methoxy-indan-1-yl)-1-[(1H-pyrrol-2-yl)carbonyl]piperidine] | < 10 |
| COc1ccc2c(c1)C(C1CCN(C(=O)c3cccs3)CC1)CC2 (centres unmarked) [4-(6-Methoxy-indan-1-yl)-1-[(2-thienyl)carbonyl]piperidine] | < 10 |
| COc1ccc2c(c1)C(C1CCN(C(=O)c3occc3C)CC1)CC2 (centres unmarked) [4-(6-Methoxy-indan-1-yl)-1-[(3-methyl-furan-2-yl)carbonyl]piperidine] | < 10 |
| COc1ccc2c(c1)C(C1CCN(C(=O)c3sccc3C)CC1)CC2 (centres unmarked) [4-(6-Methoxy-indan-1-yl)-1-[(3-methyl-thien-2-yl)carbonyl]piperidine] | < 10 |
| COc1ccc2c(c1)C(C1CCN(C(=O)c3ccsc3)CC1)CC2 (centres unmarked) [4-(6-Methoxy-indan-1-yl)-1-[(3-thienyl)carbonyl]piperidine] | < 10 |
| COc1ccc2c(c1)C(C1CCN(C(=O)C(C)C)CC1)CC2 (centres unmarked) [4-(6-methoxy-indan-1-yl)-1-(2-methylpropanoyl)piperidine] | < 10 |
| COc1ccc2c(c1)C(C1CCN(C(=O)C(F)(F)F)CC1)CC2 (centres unmarked) [4-(6-methoxy-indan-1-yl)-1-(trifluoroacetyl)piperidine] | < 10 |
| COc1ccc2c(c1)C(C1CCN(C(=O)c3ccc(C)s3)CC1)CC2 (centres unmarked) [4-(6-methoxy-indan-1-yl)-1-[(5-methyl-thien-2-yl)carbonyl]piperidine] | 10 to 100 |

| Structure (SMILES) | IC50 [nM] |
| --- | --- |
| CC(=O)NCCc1c(Cc2ccccc2)[nH]c2ccccc12 [Luzindole] | 100 to 250 |
| O=C(C1CC1)N1CCC(C2CCc3ccc(O)cc32)CC1 (centres unmarked) [N-(Cyclopropylcarbonyl)-4-(6-hydroxy-indan-1-yl)piperidine] | 10 to 100 |
| CCNC(=O)N1CCC(C2CCc3cc(F)c(OC)cc32)CC1 (centres unmarked) [N-Ethyl-4-(5-fluoro-6-methoxy-indan-1-yl)piperidine-1-carboxamide] | 10 to 100 |
| CCNC(=O)N1CCC(C2CCc3ccc(CC)cc32)CC1 (centres unmarked) [N-Ethyl-4-(6-ethyl-indan-1-yl)piperidine-1-carboxamide] | < 10 |
| CCNC(=O)N1CCC(C2CCc3ccc(F)cc32)CC1 (centres unmarked) [N-Ethyl-4-(6-fluoro-indan-1-yl)piperidine-1-carboxamide] | < 10 |
| CCNC(=O)N1CCC(C2CCc3ccc(OC)cc32)CC1 (centres unmarked) [N-Ethyl-4-(6-methoxy-indan-1-yl)piperidine-1-carboxamide] | < 10 |
| CCNC(=O)N1CCC(C2CCCc3ccc(OC)cc32)CC1 (centres unmarked) [N-Ethyl-4-(7-methoxy-tetralin-1-yl)piperidine-1-carboxamide] | 10 to 100 |
| CCNC(=O)N1CCC(C2CCc3ccccc32)CC1 (centres unmarked) [N-Ethyl-4-(indan-1-yl)-piperidine-1-carboxamide] | 10 to 100 |
| CCCCCCCOc1ccc2c(c1)C(C1CCN(C(=O)NCC)CC1)CC2 (centres unmarked) [N-Ethyl-4-[6-(n-heptyloxy)-indan-1-yl]piperidine-1-carboxamide] | < 10 |
| CCNC(=O)N1CCC(C2CCc3ccc(OC(F)(F)F)cc32)CC1 (centres unmarked) [N-Ethyl-4-[6-(trifluoromethoxy)-indan-1-yl]piperidine-1-carboxamide] | 10 to 100 |
| CCNC(=O)N1CCC(C2CCc3ccc(OCCCc4cccc(OC)c4)cc32)CC1 (centres unmarked) [N-Ethyl-4-[6-[3-(3-methoxyphenyl)propyloxy]-indan-1-yl]piperidine-1-carboxamide] | 10 to 100 |
| CNC(=O)N1CCC(C2CCc3cc(F)c(OC)cc32)CC1 (centres unmarked) [N-Methyl-4-(5-fluoro-6-methoxy-indan-1-yl)piperidine-1-carboxamide] | < 10 |
| CNC(=O)N1CCC(C2CCc3ccc(F)cc32)CC1 (centres unmarked) [N-Methyl-4-(6-fluoro-indan-1-yl)piperidine-1-carboxamide] | 10 to 100 |
| CNC(=S)N1CCC(C2CCc3ccc(OC)cc32)CC1 (centres unmarked) [N-Methyl-4-(6-methoxy-indan-1-yl)-piperidine-1-thiocarboxamide] | < 10 |
| CNC(=O)N1CCC(C2CCc3ccc(OC)cc32)CC1 (centres unmarked) [N-Methyl-4-(6-methoxy-indan-1-yl)piperidine-1-carboxamide] | < 10 |
| CNC(=O)N1CCC(C2CCc3ccccc32)CC1 (centres unmarked) [N-Methyl-4-(indan-1-yl)-piperidine-1-carboxamide] | < 10 |

system: not given; assay: not given; settings: literature: Dubocovich et al, European Journal of Pharmacology, 182, (1990), pages 313-325; cited from earlier work

| Structure (SMILES) | antidepressant-like effects |
| --- | --- |
| CC(=O)NCCc1c(Cc2ccccc2)[nH]c2ccccc12 [Luzindole] | exhibits antidepressant-like effects |

system: human melatonin receptors; assay: not given; settings: result in words, luzindole, background section; cited from earlier work

| Structure (SMILES) | binds to human melatonin receptors |
| --- | --- |
| CC(=O)NCCc1c(Cc2ccccc2)[nH]c2ccccc12 [Luzindole] | binds to human melatonin receptors |

Source: US5703239A, “Indanylpiperidines as melatonergic agents” (Bristol-Myers Squibb Company, priority 1996, dated 1997)
